“And” between values parts separate entries of the source, which are not always exact repeats. Equal values may be shown once. Toxic doses and inconclusive results are not listed.
Test system: L1210 leukemia ip in BDF1 mice, survival T/C
Assay: NCI In Vivo Anticancer Drug Screen. Data for tumor model L1210 Leukemia (intraperitoneal) in B6D2F1 (BDF1) mice
Settings: endpoint: mean survival time, higher = longer survival
In short: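 In this screen, tumor-bearing mice given compound are compared to those given vehicle, and their survival values are reported as a treated-to-control quotient.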

[1] = dose: 75.0 mg/kg/injection, schedule: Q01DX001 (ip), vehicle: saline
[2] = dose: 100.0 mg/kg/injection, schedule: Q01DX001 (ip), vehicle: carboxymethylcellulose (CMC)
[3] = dose: 200.0 mg/kg/injection, schedule: Q01DX001 (ip), vehicle: carboxymethylcellulose (CMC)
[4] = dose: 400.0 mg/kg/injection, schedule: Q01DX001 (ip), vehicle: carboxymethylcellulose (CMC)
[5] = dose: 25.0 mg/kg/injection, schedule: Q01DX009 (ip), vehicle: saline
[6] = dose: 100.0 mg/kg/injection, schedule: Q04DX003 (ip), vehicle: saline
[7] = dose: 100.0 mg/kg/injection, schedule: Q01DX001 (ip), vehicle: Klucel (hydroxypropylcellulose) (HPC)
[8] = dose: 200.0 mg/kg/injection, schedule: Q01DX001 (ip), vehicle: Klucel (hydroxypropylcellulose) (HPC)
[9] = dose: 400.0 mg/kg/injection, schedule: Q01DX001 (ip), vehicle: Klucel (hydroxypropylcellulose) (HPC)
[10] = dose: 100.0 mg/kg/injection, schedule: Q04DX003 (ip), vehicle: carboxymethylcellulose (CMC)
[11] = dose: 200.0 mg/kg/injection, schedule: Q04DX003 (ip), vehicle: carboxymethylcellulose (CMC)
[12] = dose: 400.0 mg/kg/injection, schedule: Q04DX003 (ip), vehicle: carboxymethylcellulose (CMC)

Structure (SMILES): N=C(N=Nc1c(O)[nH]c2ccccc12)N[N+](=O)[O-]
- T/C (dose: 6.25 mg/kg/injection, schedule: Q01DX009 (ip), vehicle: Klucel (hydroxypropylcellulose) (HPC)): 95 % of control
- T/C (dose: 12.5 mg/kg/injection, schedule: Q01DX009 (ip), vehicle: Klucel (hydroxypropylcellulose) (HPC)): 101 % of control
- T/C (dose: 12.5 mg/kg/injection, schedule: Q04DX003 (ip), vehicle: Klucel (hydroxypropylcellulose) (HPC)): 100 % of control
- T/C (dose: 25.0 mg/kg/injection, schedule: Q01DX009 (ip), vehicle: Klucel (hydroxypropylcellulose) (HPC)): 91 % of control
- T/C (dose: 25.0 mg/kg/injection, schedule: Q04DX003 (ip), vehicle: Klucel (hydroxypropylcellulose) (HPC)): 102 % of control

Structure (SMILES): Brc1ccc[n+](Cc2ccccc2)c1
- T/C [1]: 98 % of control

Structure (SMILES): C=C(C)C1CCC2CC/C(=N\Nc3ccccc3C(=O)OC)C=C2C1 (stereo not given)
- T/C (dose: 100.0 mg/kg/injection, schedule: Q04DX003 (ip), vehicle: Klucel (hydroxypropylcellulose) (HPC)): 90 % of control
- T/C (dose: 200.0 mg/kg/injection, schedule: Q04DX003 (ip), vehicle: Klucel (hydroxypropylcellulose) (HPC)): 94 % of control

Structure (SMILES): CNC(=O)Oc1ccccc1-c1ccccc1
- T/C [2]: 100 % of control
- T/C [3]: 100 % of control
- T/C [4]: 96 % of control

Structure (SMILES): NC(=O)C(Br)CBr (stereo not given)
- T/C [5]: 98 % of control
- T/C (dose: 50.0 mg/kg/injection, schedule: Q01DX009 (ip), vehicle: saline): 95 % of control
- T/C [6]: 101 % of control

Structure (SMILES): COC(=O)C(I)C(OC)c1ccccc1 (stereo not given)
- T/C (dose: 100.0 mg/kg/injection, schedule: Q04DX003 (ip), vehicle: saline with Tween-80): 98 % of control
- T/C (dose: 200.0 mg/kg/injection, schedule: Q04DX003 (ip), vehicle: saline with Tween-80): 96 % of control
- T/C (dose: 400.0 mg/kg/injection, schedule: Q04DX003 (ip), vehicle: saline with Tween-80): 95 % of control

Structure (SMILES): O=S(=O)(CCCCl)Cc1ccccc1
- T/C (dose: 100.0 mg/kg/injection, schedule: Q01DX009 (ip), vehicle: other): 100 % of control
- T/C (dose: 100.0 mg/kg/injection, schedule: Q04DX003 (ip), vehicle: other): 110 % of control
- T/C (dose: 200.0 mg/kg/injection, schedule: Q01DX009 (ip), vehicle: other): 98 % of control
- T/C (dose: 200.0 mg/kg/injection, schedule: Q04DX003 (ip), vehicle: other): 101 % of control
- T/C (dose: 400.0 mg/kg/injection, schedule: Q01DX009 (ip), vehicle: other): 102 % of control
- T/C (dose: 400.0 mg/kg/injection, schedule: Q04DX003 (ip), vehicle: other): 107 % of control

Structure (SMILES): CCCCCCCCCCCCCC(CCCCCCCCCCCC)CCCCCCCCCCCC
- T/C (dose: 100.0 mg/kg/injection, schedule: Q01DX001 (ip), vehicle: saline with Tween-80): 92 % of control
- T/C (dose: 200.0 mg/kg/injection, schedule: Q01DX001 (ip), vehicle: saline with Tween-80): 87 % of control
- T/C (dose: 400.0 mg/kg/injection, schedule: Q01DX001 (ip), vehicle: saline with Tween-80): 87 % of control

Structure (SMILES): CCC1(CC)NC(=O)N(CCOS(C)(=O)=O)C1=O
- T/C (dose: 50.0 mg/kg/injection, schedule: Q04DX003 (ip), vehicle: saline): 95 % of control
- T/C [6]: 115 % of control
- T/C (dose: 200.0 mg/kg/injection, schedule: Q04DX003 (ip), vehicle: saline): 101 % of control
- T/C (dose: 400.0 mg/kg/injection, schedule: Q04DX003 (ip), vehicle: saline): 100 % of control

Structure (SMILES): Cc1nc(N)[nH]c(=O)c1CCCNC(=O)c1ccccc1
- T/C [7]: 94 % of control
- T/C [8]: 91 % of control
- T/C [9]: 87 % of control

Structure (SMILES): CCC1CCCCC1(O)CC (stereo not given)
- T/C (dose: 100.0 mg/kg/injection, schedule: Q01DX009 (ip), vehicle: saline): 96 % of control
- T/C (dose: 200.0 mg/kg/injection, schedule: Q01DX009 (ip), vehicle: saline): 98 % of control

Structure (SMILES): O=NN(CCCl)C(=O)N[C@H]1CCC[C@@H](C(=O)O)C1
- T/C (dose: 18.0 mg/kg/injection, schedule: Q01DX001 (ip), vehicle: Klucel (hydroxypropylcellulose) (HPC)): 353 % of control
- T/C (dose: 26.0 mg/kg/injection, schedule: Q01DX001 (ip), vehicle: Klucel (hydroxypropylcellulose) (HPC)): 426 % of control
- T/C (dose: 40.0 mg/kg/injection, schedule: Q01DX001 (ip), vehicle: Klucel (hydroxypropylcellulose) (HPC)): 275 % of control
- T/C (dose: 60.0 mg/kg/injection, schedule: Q01DX001 (ip), vehicle: Klucel (hydroxypropylcellulose) (HPC)): 216 % of control

Structure (SMILES): Cc1ccc(NNP(Cl)(c2ccccc2)(c2ccccc2)c2ccccc2)cc1
- T/C (dose: 50.0 mg/kg/injection, schedule: Q01DX001 (ip), vehicle: saline): 92 % of control
- T/C (dose: 100.0 mg/kg/injection, schedule: Q01DX001 (ip), vehicle: saline): 97 % of control

Structure (SMILES): COC(=O)c1ccccc1NC(=O)c1cccc(Cl)c1
- T/C (dose: 100.0 mg/kg/injection, schedule: Q01DX009 (ip), vehicle: Klucel (hydroxypropylcellulose) (HPC)): 114 % of control
- T/C (dose: 200.0 mg/kg/injection, schedule: Q01DX009 (ip), vehicle: Klucel (hydroxypropylcellulose) (HPC)): 118 % of control
- T/C (dose: 400.0 mg/kg/injection, schedule: Q01DX009 (ip), vehicle: Klucel (hydroxypropylcellulose) (HPC)): 102 % of control

Structure (SMILES): CC1(c2ccc[n+](CC(=O)c3ccccc3)c2)OCCO1
- T/C [1]: 104 % of control
- T/C (dose: 150.0 mg/kg/injection, schedule: Q01DX001 (ip), vehicle: saline): 105 % of control

Structure (SMILES): CCNC(=S)NCC
- T/C [10]: 98 % of control
- T/C [11]: 102 % of control
- T/C [12]: 107 % of control

Structure (SMILES): CCCCCCCCCCCCCCCC(=O)N(CCC)CCC
- T/C [2]: 98 % of control
- T/C (dose: 100.0 mg/kg/injection, schedule: Q01DX009 (ip), vehicle: carboxymethylcellulose (CMC)): 105 % of control and 90 % of control
- T/C (dose: 100.0 mg/kg/injection, schedule: Q04DX002 (ip), vehicle: carboxymethylcellulose (CMC)): 102 % of control
- T/C [10]: 102 % of control
- T/C [3]: 99 % of control
- T/C (dose: 200.0 mg/kg/injection, schedule: Q01DX009 (ip), vehicle: carboxymethylcellulose (CMC)): 100 % of control and 101 % of control
- T/C (dose: 200.0 mg/kg/injection, schedule: Q04DX002 (ip), vehicle: carboxymethylcellulose (CMC)): 94 % of control
- T/C [11]: 104 % of control
- T/C [4]: 99 % of control
- T/C (dose: 400.0 mg/kg/injection, schedule: Q04DX002 (ip), vehicle: carboxymethylcellulose (CMC)): 96 % of control
- T/C [12]: 104 % of control

Structure (SMILES): CCCCc1ccc(O)c(O)c1O
- T/C (dose: 50.0 mg/kg/injection, schedule: Q01DX001 (sc), vehicle: olive oil, sesame oil, peanut oil): 117 % of control
- T/C (dose: 100.0 mg/kg/injection, schedule: Q01DX001 (sc), vehicle: olive oil, sesame oil, peanut oil): 101 % of control and 106 % of control
- T/C (dose: 200.0 mg/kg/injection, schedule: Q01DX001 (sc), vehicle: olive oil, sesame oil, peanut oil): 101 % of control and 105 % of control
- T/C (dose: 400.0 mg/kg/injection, schedule: Q01DX001 (sc), vehicle: olive oil, sesame oil, peanut oil): 108 % of control

Structure (SMILES): Cn1c(=O)c2[nH]c(-c3cccs3)nc2n(C)c1=O
- T/C (dose: 50.0 mg/kg/injection, schedule: Q01DX001 (ip), vehicle: other): 101 % of control
- T/C (dose: 100.0 mg/kg/injection, schedule: Q01DX001 (ip), vehicle: other): 90 % of control
- T/C (dose: 200.0 mg/kg/injection, schedule: Q01DX001 (ip), vehicle: other): 97 % of control
- T/C (dose: 400.0 mg/kg/injection, schedule: Q01DX001 (ip), vehicle: other): 92 % of control

Structure (SMILES): CC1=[N+](C)C(C)(C)CC(C)O1 (stereo not given)
- T/C (dose: 6.25 mg/kg/injection, schedule: Q01DX009 (ip), vehicle: saline): 105 % of control
- T/C (dose: 6.25 mg/kg/injection, schedule: Q04DX003 (ip), vehicle: saline): 94 % of control
- T/C (dose: 12.5 mg/kg/injection, schedule: Q01DX009 (ip), vehicle: saline): 96 % of control
- T/C (dose: 12.5 mg/kg/injection, schedule: Q04DX003 (ip), vehicle: saline): 105 % of control
- T/C [5]: 105 % of control
- T/C (dose: 25.0 mg/kg/injection, schedule: Q04DX003 (ip), vehicle: saline): 96 % of control

Structure (SMILES): CC(C)C1C(C(C)C)N1C(=O)Nc1ccccc1 (stereo not given)
- T/C [7]: 93 % of control
- T/C [8]: 96 % of control
- T/C [9]: 93 % of control

Structure (SMILES): c1cc[c]([Pb]([c]2ccccc2)([c]2ccccc2)[n]2c3ccccc3c3ccccc32)cc1
- T/C (dose: 1.56 mg/kg/injection, schedule: Q01DX009 (ip), vehicle: saline with Tween-80): 99 % of control
- T/C (dose: 3.12 mg/kg/injection, schedule: Q01DX009 (ip), vehicle: saline with Tween-80): 98 % of control
- T/C (dose: 6.25 mg/kg/injection, schedule: Q01DX009 (ip), vehicle: saline with Tween-80): 91 % of control

Reference: PubChem BioAssay AID248 (DTP/NCI, 2004)
